Measured values as given in patent US11485742B2, “2-azaspiro[3.4]octane derivatives as M4 agonists” (NOVARTIS AG, priority 2019, dated 2022).

How the values were obtained:
[1] = target: T1, human cloned CHRM2 receptor (Homo sapiens, UniProt P08172); experiment: CHRM2 Ca++ Flux Assay (M2_CHO cells, agonist mode); assay type: cell-based; details: M2 CHO cells; for EC50: agonist mode, geometric mean if tested more than once, read-out: M2 FDSS EC50; for M2 FDSS PA %: Percent Activity (PA) measured to EC100 of Carbachol
T1 construct: expressed in transfected cells; host or cells: CHO-K1 (M2_CHO)
T1 sequence (P08172 1-466): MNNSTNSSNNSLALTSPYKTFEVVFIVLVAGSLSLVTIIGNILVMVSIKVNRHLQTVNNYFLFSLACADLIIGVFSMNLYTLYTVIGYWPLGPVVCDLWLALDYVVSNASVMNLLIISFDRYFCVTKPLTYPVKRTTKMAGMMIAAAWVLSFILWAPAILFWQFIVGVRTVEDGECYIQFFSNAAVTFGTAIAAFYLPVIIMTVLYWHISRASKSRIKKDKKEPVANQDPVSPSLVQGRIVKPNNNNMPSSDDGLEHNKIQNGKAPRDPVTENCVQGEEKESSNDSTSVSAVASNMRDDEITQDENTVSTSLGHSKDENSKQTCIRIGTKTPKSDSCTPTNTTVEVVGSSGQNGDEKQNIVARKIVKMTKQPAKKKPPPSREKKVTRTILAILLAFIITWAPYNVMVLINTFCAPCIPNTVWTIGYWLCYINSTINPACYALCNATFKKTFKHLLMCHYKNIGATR
Method: (§1) The above examples were characterized by measuring the intracellular mobilization of Ca^++ ions caused by signaling events mediated by the receptor. The Intra-cellular Calcium flux levels were captured by the highly sensitive Ca^++ indicator, Calcium Assay Kit (BD Biosciences; Catalog Number 640178. The fluorescent activity from all receptors were monitored by the fluorescent imager, FDSS 7000EX (Hamamatsu) over a span of 3 minutes. The change in Calcium flux was readily captured upon activation with the muscarinic orthosteric agonist, Carbachol.
CHO-K1 cells stably expressing the human cloned CHRM2 receptor (M2_CHO cells) were grown and maintained in a monolayer culture with F12/HAM (Life Technologies) supplemented with 10% Fetal Bovine Serum, 1×Pen-Strep, and 0.4 mg/mL Geneticin in a humidified atmosphere (5% CO2) at 37° C. The cultures were grown to 80-90% confluency in T150 flasks (Corning) and washed with 1×DPBS and lifted with 0.05% Trypsin (Life Technologies). The cells were then spun (1K rpm, 3 minutes) and frozen using Recovery Cell Culture Freezing Media (Gibco Technologies). Cells were stored in liquid nitrogen and thawed a day before the assay.
Prior to the day of the assay, stable M2 CHO cells were thawed and plated on Greiner 384 well TC treated plate at a density of 12K cells/well and kept overnight in a humidified atmosphere (5% CO2) at 37° C. The following day, the cells were loaded with Ca^++ dye (BD Biosciences) using Loading Buffer (HBSS +Ca/+Mg, 20 mM HEPES, 2.5 mM Probenecid) and placed back in cell incubator for a minimum of 1 hour and maximum of 2 hours. After incubation, the dye was replaced with Assay Buffer (HBSS −Ca/−Mg, 20 mM HEPES, 2.5 mM Probenecid) supplemented with 20 μM ATP (Sigma Aldrich) and kept at room temperature for 60 minutes prior before running on cell imager. The FDSS 7000EX (Hamamatsu) was used to acquire Ca^++ traces from cells in response to compound treatment and the data was used to generate dose response curves in agonist mode. All compounds were serially diluted in DMSO then prepared in Assay Buffer for Ca^−+ flux studies. The dose response curves were generated from the average of triplicate wells obtained from each data point and used a non-linear regression of four parameter dose response algorithm. The Percent Activity (PA) was measured to EC100 of Carbachol.
(§2) If an Example was tested more than once in an assay, then the values below represent the geometric mean of the results from each independent experiment.

[2] = target: T2, human cloned CHRM4 receptor (Homo sapiens, UniProt P08173); experiment: CHRM4 Ca++ Flux Assay (M4_CHO cells, agonist mode); assay type: cell-based; details: for M4 FDSS PA %: Percent Activity (PA); for EC50: geometric mean if tested more than once, read-out: M4 FDSS EC50
T2 construct: expressed in transfected cells; host or cells: CHO-K1 (M4_CHO)
T2 sequence (P08173 1-479): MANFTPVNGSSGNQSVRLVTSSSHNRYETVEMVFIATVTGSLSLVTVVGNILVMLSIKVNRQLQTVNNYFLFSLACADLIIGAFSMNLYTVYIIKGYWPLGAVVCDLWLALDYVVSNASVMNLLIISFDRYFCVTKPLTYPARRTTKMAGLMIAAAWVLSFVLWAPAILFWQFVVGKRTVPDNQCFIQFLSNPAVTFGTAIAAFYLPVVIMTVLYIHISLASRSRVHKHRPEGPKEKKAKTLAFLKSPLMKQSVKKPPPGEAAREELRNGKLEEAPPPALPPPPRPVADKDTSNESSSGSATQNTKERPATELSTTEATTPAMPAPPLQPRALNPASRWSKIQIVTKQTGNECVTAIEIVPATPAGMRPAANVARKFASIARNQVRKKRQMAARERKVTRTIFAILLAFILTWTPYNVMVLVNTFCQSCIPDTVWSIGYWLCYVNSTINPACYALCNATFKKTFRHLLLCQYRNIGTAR
Method: as §1
CHO-K1 cells stably expressing the human cloned CHRM4 receptor (M4_CHO cells) were grown and maintained in a monolayer culture with F12/HAM (Life Technologies) supplemented with 10% Fetal Bovine Serum, 1X Pen-Strep, and 0.4 mg/mL Geneticin in a humidified atmosphere (5% CO2) at 37° C. The cultures were grown to 80-90% confluency in T150 flasks (Corning) and washed with 1×DPBS then lifted with 0.05% Trypsin (Life Technologies). The cells were harvested in growth media then spun (1K rpm, 3 minutes) and cryopreserved using Recovery Cell Culture Freezing Media (Gibco Technologies). Cells were stored in liquid nitrogen and thawed a day before the assay.
Prior to the day of the assay, stable M4_CHO cells were thawed and plated on 384 well black walled clear bottom TC treated plates (Greiner Cat #781091) at 12K cells/well using F12/HAM Media supplemented with 10% FBS (Life Technologies) and kept overnight in a humidified atmosphere (5% CO2) at 37° C. The next day, cells were loaded with 20 μL Ca^++ dye (BD Biosciences) using Loading Buffer (HBSS +Ca/+Mg, 20 mM HEPES, 2.5 mM Probenecid) and placed back in cell incubator for a minimum of 1 hour. After incubation, the dye was replaced with 45 μL Assay Buffer (HBSS −Ca/−Mg, 20 mM HEPES, 2.5 mM Probenecid) supplemented with 20 μM ATP (Sigma Aldrich) and kept at room temperature in the dark for 60 minutes before running on a cell imager. The FDSS 7000EX (Hamamatsu) was used to capture Ca^++ traces for a span of 3 minutes from cells treated with 11 point dose of compound in triplicate in order to generate dose response curves in agonist mode. All compounds were serially diluted in DMSO then prepared in Assay Buffer for Ca^++ flux studies. The dose response curves were generated from the average of triplicate wells obtained from each data point and used a non-linear regression of four parameter dose response algorithm. The Percent Activity (PA) was measured to EC100 of Carbachol.
as §2

SMILES	EC50 [1] [nM]	M2 FDSS PA % [1] [%]	M4 FDSS PA % [2] [%]	EC50 [2] [nM]
Fc1ccc(OC[C@H]2CCO2)c(C2CCN([C@@H]3COC4(C3)CN(c3nncs3)C4)CC2)c1.O=C(O)C(F)(F)F (single isomer, unassigned) [Example 2C, (S)-7-(4-(5-fluoro-2-(((R)-oxetan-2-yl)methoxy)phenyl)piperidin-1-yl)-2-(1,3,4-thiadiazol-2-yl)-5-oxa-2-azaspiro[3.4]octane trifluoroacetate or (S)-7-(4-(5-fluoro-2-(((S)-oxetan-2-yl)methoxy)phenyl)piperidin-1-yl)-2-(1,3,4-thiadiazol-2-yl)-5-oxa-2-azaspiro[3.4]octane trifluoroacetate]	321	39	72	94
Fc1ccc(OC[C@H]2CCO2)c(C2CCN([C@@H]3COC4(C3)CN(c3nncs3)C4)CC2)c1.O=C(O)C(F)(F)F (single isomer, unassigned) [Example 2D, (S)-7-(4-(5-fluoro-2-(((R)-oxetan-2-yl)methoxy)phenyl)piperidin-1-yl)-2-(1,3,4-thiadiazol-2-yl)-5-oxa-2-azaspiro[3.4]octane trifluoroacetate or (S)-7-(4-(5-fluoro-2-(((S)-oxetan-2-yl)methoxy)phenyl)piperidin-1-yl)-2-(1,3,4-thiadiazol-2-yl)-5-oxa-2-azaspiro[3.4]octane trifluoroacetate]	446	50	72	20
OC[C@H]1C[C@H](Oc2ccc(F)cc2C2CCN([C@@H]3COC4(C3)CN(c3nnco3)C4)CC2)C1 (single isomer, unassigned) [Example 2HH, ((1S,3r)-3-(2-(1-((S)-2-(1,3,4-oxadiazol-2-yl)-5-oxa-2-azaspiro[3.4]octan-7-yl)piperidin-4-yl)-4-fluorophenoxy)cyclobutyl)methanol or ((1R,3s)-3-(2-(1-((S)-2-(1,3,4-oxadiazol-2-yl)-5-oxa-2-azaspiro[3.4]octan-7-yl)piperidin-4-yl)-4-fluorophenoxy)cyclobutyl)methanol]	6560	25	85	124
OC[C@H]1C[C@H](Oc2ccc(F)cc2C2CCN([C@@H]3COC4(C3)CN(c3nnco3)C4)CC2)C1 (single isomer, unassigned) [Example 2II, ((1S,3r)-3-(2-(1-((S)-2-(1,3,4-oxadiazol-2-yl)-5-oxa-2-azaspiro[3.4]octan-7-yl)piperidin-4-yl)-4-fluorophenoxy)cyclobutyl)methanol or ((1R,3s)-3-(2-(1-((S)-2-(1,3,4-oxadiazol-2-yl)-5-oxa-2-azaspiro[3.4]octan-7-yl)piperidin-4-yl)-4-fluorophenoxy)cyclobutyl)methanol]	4290	23	81	124
CC1(C)C[C@@H](Oc2ccc(F)cc2C2CCN([C@@H]3COC4(C3)CN(c3nnco3)C4)CC2)CO1 (single isomer, unassigned) [Example 2N, (S)-7-(4-(2-(((R)-5,5-dimethyltetrahydrofuran-3-yl)oxy)-5-fluorophenyl)piperidin-1-yl)-2-(1,3,4-oxadiazol-2-yl)-5-oxa-2-azaspiro[3.4]octane or (S)-7-(4-(2-(((S)-5,5-dimethyltetrahydrofuran-3-yl)oxy)-5-fluorophenyl)piperidin-1-yl)-2-(1,3,4-oxadiazol-2-yl)-5-oxa-2-azaspiro[3.4]octane]	4240	20	65	289
CC1(C)C[C@@H](Oc2ccc(F)cc2C2CCN([C@@H]3COC4(C3)CN(c3nnco3)C4)CC2)CO1 (single isomer, unassigned) [Example 2O, (S)-7-(4-(2-(((R)-5,5-dimethyltetrahydrofuran-3-yl)oxy)-5-fluorophenyl)piperidin-1-yl)-2-(1,3,4-oxadiazol-2-yl)-5-oxa-2-azaspiro[3.4]octane or (S)-7-(4-(2-(((S)-5,5-dimethyltetrahydrofuran-3-yl)oxy)-5-fluorophenyl)piperidin-1-yl)-2-(1,3,4-oxadiazol-2-yl)-5-oxa-2-azaspiro[3.4]octane]	581	37	86	51
Fc1ccc(O[C@H]2CCCOC2)c(C2CCN([C@@H]3COC4(C3)CN(c3nnco3)C4)CC2)c1 (single isomer, unassigned) [Example 2Q, (S)-7-(4-(5-fluoro-2-(((S)-tetrahydro-2H-pyran-3-yl)oxy)phenyl)piperidin-1-yl)-2-(1,3,4-oxadiazol-2-yl)-5-oxa-2-azaspiro[3.4]octane or (S)-7-(4-(5-fluoro-2-(((R)-tetrahydro-2H-pyran-3-yl)oxy)phenyl)piperidin-1-yl)-2-(1,3,4-oxadiazol-2-yl)-5-oxa-2-azaspiro[3.4]octane]	1160	26	81	130
Fc1ccc(O[C@H]2CCCOC2)c(C2CCN([C@@H]3COC4(C3)CN(c3nnco3)C4)CC2)c1 (single isomer, unassigned) [Example 2R, (S)-7-(4-(5-fluoro-2-(((S)-tetrahydro-2H-pyran-3-yl)oxy)phenyl)piperidin-1-yl)-2-(1,3,4-oxadiazol-2-yl)-5-oxa-2-azaspiro[3.4]octane or (S)-7-(4-(5-fluoro-2-(((R)-tetrahydro-2H-pyran-3-yl)oxy)phenyl)piperidin-1-yl)-2-(1,3,4-oxadiazol-2-yl)-5-oxa-2-azaspiro[3.4]octane]	259	42	76	25
